The target of data set [1] is human NR1/NR2A (Homo sapiens (Human), UniProt Q05586+Q12879). The data set can be described thus: NR2A antagonist activity, Fluo-4 calcium influx assay in HEK293 cells. The data set is classed as cell-based. Here is the method:
(§1) Activation of the NR2A or NR2B subtype of NMDA receptor with glutamate as an agonist and glycine co-agonist on these cells results in calcium influx, which can be monitored with fluorescent indicator Fluo-4.
(§2) For experiments, the cells were seeded onto poly-D-lysine-coated 96-well black plates with clear bottom (Corning) at a density of ˜50,000 cells/well. After overnight culture, the growth medium was removed from the wells and the cells were incubated at 37° C. for 60 min in Hanks buffer containing 4 μM fluo-4-AM (Invitrogen) and 0.1% bovine serum albumin (BSA). After dye-loading, the cells were washed three times with Hanks buffer and incubated for 10 min at room temperature with various concentrations of test compounds prepared in Hanks buffer with 0.1% BSA. The cell plates were placed onto FDSS μCell fluorescence reader (Hamamatsu). After 20 sec reading of background fluorescence, agonist glutamate at final 100 μM and co-agonist glycine at final 50 μM were added to the cells to activate the receptor, and the resulting fluorescence changes were recorded and quantified.

For data set [2], the target named is human NR1/NR2B (Homo sapiens (Human), UniProt Q13224). Nature of the data set: NR2B antagonist activity, Fluo-4 calcium influx assay in HEK293 cells. The note with it: HEK293 cells stably expressing NR2B; glutamate 100 μM, glycine 50 μM. The class given is cell-based. Here is the method:
as §1, §2

Data set [3] deals with hERG channel (Homo sapiens (Human), UniProt Q12809). Nature of the data set: hERG channel inhibition, whole cell patch clamp in HEK293 cells. The class given is cell-based. To be noted: hERG stably expressed in HEK293 cells. (hERG is a cardiac potassium channel; its block is linked to QT prolongation.)
hERG channel, sequence (Q12809 whole entry): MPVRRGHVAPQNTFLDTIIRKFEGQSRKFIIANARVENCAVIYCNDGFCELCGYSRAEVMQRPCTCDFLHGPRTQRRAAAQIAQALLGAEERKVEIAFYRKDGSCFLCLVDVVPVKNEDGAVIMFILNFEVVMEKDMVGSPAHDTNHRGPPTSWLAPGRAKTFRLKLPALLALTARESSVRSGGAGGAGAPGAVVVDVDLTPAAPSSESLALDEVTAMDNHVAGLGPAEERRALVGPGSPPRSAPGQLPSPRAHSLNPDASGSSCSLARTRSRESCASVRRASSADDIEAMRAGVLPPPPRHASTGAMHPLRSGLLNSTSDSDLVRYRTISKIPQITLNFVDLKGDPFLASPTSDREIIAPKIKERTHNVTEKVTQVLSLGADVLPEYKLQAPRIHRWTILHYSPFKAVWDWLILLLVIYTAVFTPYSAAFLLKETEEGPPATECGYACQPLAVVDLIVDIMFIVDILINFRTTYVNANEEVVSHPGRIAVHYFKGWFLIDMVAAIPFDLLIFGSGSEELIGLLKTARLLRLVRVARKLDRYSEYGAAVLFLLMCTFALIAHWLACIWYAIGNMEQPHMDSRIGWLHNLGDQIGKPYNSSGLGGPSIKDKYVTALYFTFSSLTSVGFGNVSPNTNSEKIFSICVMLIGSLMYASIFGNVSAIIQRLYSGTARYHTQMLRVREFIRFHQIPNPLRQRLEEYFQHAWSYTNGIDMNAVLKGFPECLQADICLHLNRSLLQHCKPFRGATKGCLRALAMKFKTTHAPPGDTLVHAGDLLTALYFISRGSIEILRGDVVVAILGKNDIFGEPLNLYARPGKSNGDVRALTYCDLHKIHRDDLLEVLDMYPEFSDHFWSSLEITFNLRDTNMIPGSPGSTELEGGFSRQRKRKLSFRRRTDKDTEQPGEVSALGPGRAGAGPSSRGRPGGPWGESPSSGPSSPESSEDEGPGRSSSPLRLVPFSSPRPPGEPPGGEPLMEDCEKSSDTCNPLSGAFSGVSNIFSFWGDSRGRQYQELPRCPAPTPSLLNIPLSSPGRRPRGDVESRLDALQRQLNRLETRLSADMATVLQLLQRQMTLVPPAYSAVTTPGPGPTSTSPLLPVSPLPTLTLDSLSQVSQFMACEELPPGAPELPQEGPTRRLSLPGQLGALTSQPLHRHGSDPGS
Experimental: The assay was performed on hERG channel stably expressed in HEK293 cells. The cells were cultured at 37° C. in a humidified CO2 incubator in the growth medium consisting of DMEM, 10% fetal bovine serum and antibiotics. Prior to the assay, the cells were seeded onto a 12 mm PDL-coated glass coverslip and cultured in a 35 mm Petri dish. After 16 to 40 hr culture, the cover slip was transferred into the chamber of OctaFlow perfusion system (ALA Instrument) and under a constant flow of extracellular solution (140 mM NaCl, 4 M KCl, 1 mM MgCl2, 1 mM CaCl2, 10 mM HEPES, 10 mM D-glucose, pH 7.35, osmolarity 290). Whole cell patch clamping was performed with a glass micropipette filled with intracellular solution (120 mM KCl, 1.75 mM MgCl2, 10 mM HEPES, 10 mM EGTA, and 4 mM ATP-K2, PH 7.2, osmolarity 300). Giga-seal was maintained during the test. The voltage control and current measurement were carried out using Axon amplifier 700B, Digidata 1440A and CLAMPEX10 software (Molecular Devices). Whole-cell hERG currents were recorded following the Petroski protocol: the cell was held at −80 mV, and the voltage step jumped from −80 to 30 mV and stay for 2 sec with a 20 ms prepulse at −40 mV. After depolarization, the voltage was decreased to −40 mV and stay for 2 sec, and returned back to −80 mV. Test compound was applied by quartz capillary tubes tip (200 μm inner diameter), and the flow rate was controlled at 2-3 ml/min with OctaFlow perfusion system. Different concentrations of the compound were applied to the cells for 5 min and the hERG current was measured three times before, during and after compound treatment. The data were analyzed using Clampfit 10 software (Molecular Devices).
The subject of data set [4] is Male mice (strain NLMN). Nature of the data set: Forced swim test. The class given is in vivo. On the procedure:
Mice that are forced to swim in a situation from which they cannot escape, rapidly become immobile. Drugs with antidepressant activity, such as imipramine, reduce the amount of time spent in the immobile state. […] All animals were housed in a temperature (22-24° C.) and humidity (50-60%) controlled environment with free access to food and water on a 12-hour light-dark cycle. Test compounds were dissolved in 0.5% dimethylsulfoxide, 4% hydroxypropyl-b-cyclodextrin water to generate the appropriate dosing solution. Drugs were administered by intraperitoneal injection at a dose volume of 10 mL/kg. Testing was initiated 20-60 minutes after dosing. […] Mice were placed in a white plastic cylinder 20 cm high with a diameter of 21 cm containing 10 cm of water at 25±2° C. The mice were videotaped for 6 minutes, and the last 4 minutes of video were analyzed by a blinded observer off-line. The observer judged the animal to be immobile when it ceased all activity (struggling, swimming, jumping etc.) and floated passively atop the water. The amount of time each animal spent in the immobile state was recorded and used for statistical analysis of compound effect. Group differences were evaluated by student's t-test or one-way ANOVA followed by post-hoc Dunnett's test.

The target of data set [5] is CYP2D6 (Homo sapiens (Human), UniProt P10635). Nature of the data set: CYP P450 enzyme inhibition in pooled human liver microsome. Background: Liver microsomes are vesicles of endoplasmic reticulum, rich in cytochrome P450 enzymes.
CYP2D6, sequence (P10635 whole entry): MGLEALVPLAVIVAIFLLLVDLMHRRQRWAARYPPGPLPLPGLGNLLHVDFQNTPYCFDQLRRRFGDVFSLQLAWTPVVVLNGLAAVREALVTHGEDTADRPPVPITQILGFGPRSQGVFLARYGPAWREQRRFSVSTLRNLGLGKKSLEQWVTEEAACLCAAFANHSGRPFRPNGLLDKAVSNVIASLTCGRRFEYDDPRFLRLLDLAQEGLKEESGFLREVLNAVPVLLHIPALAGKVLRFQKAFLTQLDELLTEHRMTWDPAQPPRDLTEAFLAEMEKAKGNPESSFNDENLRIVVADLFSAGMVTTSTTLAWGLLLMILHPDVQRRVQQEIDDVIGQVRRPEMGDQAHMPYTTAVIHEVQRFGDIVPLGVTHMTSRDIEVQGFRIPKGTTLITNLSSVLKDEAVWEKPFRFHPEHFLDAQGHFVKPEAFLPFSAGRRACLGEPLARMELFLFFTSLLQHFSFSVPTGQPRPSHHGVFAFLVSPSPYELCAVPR
Experimental: Those CYP isoforms and their corresponding probe substrates are as follows: CYP1A2 (phenacetin, 30 μM), CYP2C9 (tolutamide, 100 μM), CYP2C19 (S-mephenytoin, 40 μM), CYP2D6 (dextromethorphan, 5 μM) and CYP3A4 (midazolam, 1 μM). All probe substrates were used at concentrations near or below their Kms. For experiment, a reaction mixture of test compound at 10 uM or in serial dilution, CYP probe substrate described above and 0.2 mg/mL pooled HLM in phosphate buffer, pH 7.4 in a final volume of 200 μL was pre-incubated at 37° C. for 10 minutes in triplicate. The reaction was initiated by addition of NADPH at final concentration of 1 mM. […] The samples were then centrifuged at 13,000 rpm and the supernatants were injected to LC-MS/MS (Agilent Technologies) to quantify the concentration of the specific metabolites of the probe substrates formed by individual CYP450 isoforms. The inhibition ratio is calculated as: (Mt−M0)/Mwater×100% • in which Mt and M0 represent the concentrations of the specific probe substrate metabolite, which was formed by individual CYP450 isoform, at the beginning and end of the reaction in the presence of test compound; while Mwater represents the concentration of the specific metabolite at the end of the reaction in the absence of test compound. […]

Several values for one entry are separate records, joined by “and”; a condition that tells them apart may be missing. Equal values may be shown once.

human NR1/NR2B, sequence (Q13224 27-1484, other chains not shown): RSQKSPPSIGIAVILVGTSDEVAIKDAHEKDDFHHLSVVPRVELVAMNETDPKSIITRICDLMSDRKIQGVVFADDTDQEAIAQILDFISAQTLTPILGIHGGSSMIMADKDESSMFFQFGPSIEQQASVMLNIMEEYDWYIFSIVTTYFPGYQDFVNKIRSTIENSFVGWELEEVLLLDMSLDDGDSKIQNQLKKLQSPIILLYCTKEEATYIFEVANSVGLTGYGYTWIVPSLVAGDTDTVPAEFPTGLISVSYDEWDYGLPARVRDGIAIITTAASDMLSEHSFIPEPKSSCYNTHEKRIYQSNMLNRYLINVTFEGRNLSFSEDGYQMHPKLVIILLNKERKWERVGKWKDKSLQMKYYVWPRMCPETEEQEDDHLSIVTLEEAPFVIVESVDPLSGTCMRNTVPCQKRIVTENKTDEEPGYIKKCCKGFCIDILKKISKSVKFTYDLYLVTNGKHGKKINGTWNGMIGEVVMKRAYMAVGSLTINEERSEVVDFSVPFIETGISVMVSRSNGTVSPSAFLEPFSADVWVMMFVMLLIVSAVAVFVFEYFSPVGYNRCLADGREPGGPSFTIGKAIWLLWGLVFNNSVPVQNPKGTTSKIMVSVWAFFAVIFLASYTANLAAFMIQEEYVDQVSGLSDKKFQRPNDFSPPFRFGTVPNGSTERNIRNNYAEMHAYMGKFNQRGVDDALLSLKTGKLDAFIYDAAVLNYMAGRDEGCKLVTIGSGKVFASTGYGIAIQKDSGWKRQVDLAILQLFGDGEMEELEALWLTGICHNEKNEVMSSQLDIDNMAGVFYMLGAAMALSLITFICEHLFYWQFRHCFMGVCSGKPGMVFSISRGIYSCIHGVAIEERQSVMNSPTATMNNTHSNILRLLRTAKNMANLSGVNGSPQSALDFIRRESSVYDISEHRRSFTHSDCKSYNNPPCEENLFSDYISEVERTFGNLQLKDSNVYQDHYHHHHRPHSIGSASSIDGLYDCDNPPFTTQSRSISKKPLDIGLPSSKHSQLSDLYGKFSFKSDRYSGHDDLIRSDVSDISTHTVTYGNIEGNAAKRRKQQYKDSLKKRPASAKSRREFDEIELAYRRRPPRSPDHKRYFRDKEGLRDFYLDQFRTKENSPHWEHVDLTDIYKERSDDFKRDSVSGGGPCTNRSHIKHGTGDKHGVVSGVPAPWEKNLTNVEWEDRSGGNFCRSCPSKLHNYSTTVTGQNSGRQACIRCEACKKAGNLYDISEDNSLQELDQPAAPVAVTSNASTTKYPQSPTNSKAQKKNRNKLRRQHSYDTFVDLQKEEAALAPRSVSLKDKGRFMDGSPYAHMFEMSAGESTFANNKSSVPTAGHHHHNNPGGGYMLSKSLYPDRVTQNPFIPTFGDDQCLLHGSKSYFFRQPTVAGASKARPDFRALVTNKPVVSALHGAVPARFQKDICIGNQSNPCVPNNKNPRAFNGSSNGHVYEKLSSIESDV
human NR1/NR2A, sequence (Q12879 23-1464, other chains not shown): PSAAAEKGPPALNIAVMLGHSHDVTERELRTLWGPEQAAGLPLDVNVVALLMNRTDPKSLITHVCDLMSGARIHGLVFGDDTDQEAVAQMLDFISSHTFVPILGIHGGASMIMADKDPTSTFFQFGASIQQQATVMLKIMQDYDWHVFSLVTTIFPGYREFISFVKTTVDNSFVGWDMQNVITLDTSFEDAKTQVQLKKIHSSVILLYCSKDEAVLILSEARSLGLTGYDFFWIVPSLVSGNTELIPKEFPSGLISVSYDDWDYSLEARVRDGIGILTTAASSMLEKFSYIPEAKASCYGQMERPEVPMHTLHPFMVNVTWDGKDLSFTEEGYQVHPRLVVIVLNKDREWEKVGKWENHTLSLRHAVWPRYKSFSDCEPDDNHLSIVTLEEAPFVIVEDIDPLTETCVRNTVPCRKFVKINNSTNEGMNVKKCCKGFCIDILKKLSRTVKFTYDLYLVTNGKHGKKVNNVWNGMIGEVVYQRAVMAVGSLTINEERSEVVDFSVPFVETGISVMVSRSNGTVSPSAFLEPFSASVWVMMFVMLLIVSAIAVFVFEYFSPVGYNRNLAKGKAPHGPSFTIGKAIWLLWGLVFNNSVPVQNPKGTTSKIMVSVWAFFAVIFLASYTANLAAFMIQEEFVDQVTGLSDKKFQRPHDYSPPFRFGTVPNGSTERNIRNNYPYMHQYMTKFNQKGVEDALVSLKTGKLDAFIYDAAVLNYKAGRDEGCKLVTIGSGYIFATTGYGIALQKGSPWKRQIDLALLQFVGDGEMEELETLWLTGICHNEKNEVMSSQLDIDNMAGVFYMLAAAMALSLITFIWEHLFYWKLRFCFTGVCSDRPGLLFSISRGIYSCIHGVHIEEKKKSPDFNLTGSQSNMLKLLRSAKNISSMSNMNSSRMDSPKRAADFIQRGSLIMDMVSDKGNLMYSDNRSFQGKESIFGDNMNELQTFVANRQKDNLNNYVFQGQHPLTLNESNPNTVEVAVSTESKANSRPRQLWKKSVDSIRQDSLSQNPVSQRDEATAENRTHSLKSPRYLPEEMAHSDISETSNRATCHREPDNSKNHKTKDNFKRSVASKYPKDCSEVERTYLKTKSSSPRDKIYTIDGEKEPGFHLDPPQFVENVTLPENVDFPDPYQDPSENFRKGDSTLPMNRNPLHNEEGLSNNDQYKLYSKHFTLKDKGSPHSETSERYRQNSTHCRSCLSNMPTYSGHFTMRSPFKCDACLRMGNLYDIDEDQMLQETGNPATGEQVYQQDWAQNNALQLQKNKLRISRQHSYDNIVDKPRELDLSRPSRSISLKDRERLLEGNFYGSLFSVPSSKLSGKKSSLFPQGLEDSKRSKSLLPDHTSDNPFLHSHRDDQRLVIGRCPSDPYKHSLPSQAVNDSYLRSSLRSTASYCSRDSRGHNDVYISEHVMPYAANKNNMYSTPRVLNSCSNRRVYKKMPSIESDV

As usually defined, the IC50 is the concentration at which inhibition is half-maximal. As for `FC(F)(CN1CCC(Nc2ncnc3[nH]ncc23)CC1)c1ccccn1` [C-1, N-(1-(2,2-difluoro-2-(pyridin-2-yl)ethyl)piperidin-4-yl)-1H-pyrazolo[3,4-d]pyrimidin-4-amine], the IC50 in data set [1] is more than 10 µM; in data set [2], 0.178 µM.
In the case of `FC(F)(CN1CCC(Nc2ncnc3[nH]ncc23)CC1)c1ccc(Cl)cn1` [C-3], the IC50 in data set [1] was more than 10 µM; in data set [2], 0.026 µM.
As to `Cc1ccc(C(F)(F)CN2CCC(Nc3ncnc4[nH]ncc34)CC2)nc1` [C-4, N-(1-(2,2-difluoro-2-(5-methylpyridin-2-yl)ethyl)piperidin-4-yl)-1H-pyrazolo[3,4-d]pyrimidin-4-amine], the IC50 in data set [1] is more than 10 µM; in data set [2] it was 0.052 µM.
Consider `FC(F)(F)c1ccc(C(F)(F)CN2CCC(Nc3ncnc4[nH]ncc34)CC2)nc1` [C-5, N-(1-(2,2-difluoro-2-(5-(trifluoromethyl)pyridin-2-yl)ethyl)piperidin-4-yl)-1H-pyrazolo[3,4-d]pyrimidin-4-amine], for which the results for the IC50 in data set [1] and in data set [3] were more than 10 µM and 31 µM, respectively. In addition, the immobility time in data set [4] (3 mg/kg IP, vehicle group 188±6.6, p<0.05) worked out at 111 ± 18.3 s; in data set [4] (10 mg/kg IP, vehicle group 188±6.6, p<0.01) it was 89 ± 14.4 s.
On to `FC(F)c1ccc(C(F)(F)CN2CCC(Nc3ncnc4[nH]ncc34)CC2)nc1` [C-6], for which the 50% inhibitory concentration (IC50) in data set [1] was more than 10 µM; in data set [2], 0.034 µM.
Regarding `FCc1ccc(C(F)(F)CN2CCC(Nc3ncnc4[nH]ncc34)CC2)nc1` [C-7], the figures for the IC50 in data set [1] and in data set [2] were more than 10 µM and 0.043 µM, respectively.
In the same order, the values of `FC(F)Oc1ccc(C(F)(F)CN2CCC(Nc3ncnc4[nH]ncc34)CC2)nc1` [C-12] are more than 10 µM and 0.023 µM.
Regarding `Fc1cnc(C(F)(F)CN2CCC(Nc3ncnc4[nH]ncc34)CC2)c(F)c1` [C-15, N-(1-(2-(3,5-difluoropyridin-2-yl)-2,2-difluoroethyl)piperidin-4-yl)-1H-pyrazolo[3,4-d]-pyrimidin-4-amine], the IC50 was more than 10 µM in data set [1] and 0.093 µM in data set [2].
As for `Fc1cc(Cl)cnc1C(F)(F)CN1CCC(Nc2ncnc3[nH]ncc23)CC1` [C-16, N-(1-(2-(5-chloro-3-fluoropyridin-2-yl)-2,2-difluoroethyl)piperidin-4-yl)-1H-pyrazolo[3,4-d]pyrimidin-4-amine], the IC50 in data set [1] is more than 10 µM; in data set [3], 13 µM; in data set [2], 0.03 µM; in data set [5], 10 µM.
Regarding `Cc1cnc(C(F)(F)CN2CCC(Nc3ncnc4[nH]ncc34)CC2)c(F)c1` [C-17, N-(1-(2,2-difluoro-2-(3-fluoro-5-methylpyridin-2-yl)ethyl)piperidin-4-yl)-1H-pyrazolo[3,4-d]pyrimidin-4-amine], the IC50 in data set [1] is more than 10 µM; in data set [2], 0.048 µM.
In the case of `Fc1cc(C(F)(F)F)cnc1C(F)(F)CN1CCC(Nc2ncnc3[nH]ncc23)CC1` [C-18, N-(1-(2,2-difluoro-2-(3-fluoro-5-(trifluoromethyl)pyridin-2-yl)-ethyl)piperidin-4-yl)-1H-pyrazolo[3,4-d]pyrimidin-4-amine], the figures for the IC50 in data set [1] and in data set [2] were more than 10 µM and 0.059 µM, respectively. The immobility time in data set [4] (10 mg/kg, 20 minutes after IP dosing, vehicle group 175±14, p<0.01) stood at 97 ± 16 s.
On to `FC(F)(CN1CCC(Nc2ncnc3[nH]ncc23)CC1)c1ncc(Cl)cc1Cl` [C-24, N-(1-(2-(3,5-dichloropyridin-2-yl)-2,2-difluoroethyl)piperidin-4-yl)-1H-pyrazolo[3,4-d]pyrimidin-4-amine], for which the figures for the IC50 in data set [1] and in data set [2] were more than 10 µM and 0.052 µM, respectively.
Regarding `Cc1n[nH]c2ncnc(NC3CCN(CC(F)(F)c4ccc(C(F)(F)F)cn4)CC3)c12` [C-33, N-(1-(2,2-difluoro-2-(5-(trifluoromethyl)pyridin-2-yl)ethyl)piperidin-4-yl)-3-methyl-1H-pyrazolo[3,4-d]pyrimidin-4-amine], the IC50 in data set [1] is more than 10 µM; in data set [3], more than 30 µM; in data set [2], 0.11 µM and 0.089 µM.
For the compound `FC(F)(F)c1ccc(C(F)(F)CN2CCC(Nc3ncnc4[nH]ncc34)CC2)cn1` [C-127, N-(1-(2,2-difluoro-2-(6-(trifluoromethyl)pyridin-3-yl)ethyl)piperidin-4-yl)-1H-pyrazolo[3,4-d]pyrimidin-4-amine], the IC50 in data set [3] is 23 µM; in data set [2], 0.038 µM.
In the case of `CN(C)CCCN1c2ccccc2CCc2ccccc21` [imipramine, reference compound], the antidepressant activity entry in data set [4] (positive control, 32 mg/kg, IP) was “showed the expected antidepressant activity”.
